{"source": "patent CN109134447A", "about": "“一种富马酸卢帕替芬的杂质b及其制备方法和检测方法” (FUJIAN MINDONG REJUVENATION PHARMACEUTICAL Co Ltd, priority 2018, dated 2019)", "assay": "Stability test of the reference solution of the compound of formula I (HPLC peak area)", "type": "physicochemical", "conditions": "reference solution in 50% aqueous methanol (25 mg in 25 ml); injected at 0, 2, 4, 8, 12, 24 h after preparation, 20 μl each; within 24 hours", "data": [{"smiles": "Cc1cncc(C[N+]2(C)CCC(=C3c4ccccc4CC(=O)c4sccc43)CC2)c1.[Br-]", "note": "(stereo not shown) [式Ⅰ所示化合物]", "values": [{"measurement": "stability (peak area by HPLC)", "value": "稳定"}]}]}
